Data: patent US6114302A, “Fragrance pro-accords” (The Procter & Gamble Company, priority 1999, dated 2000)

Assay: Fragrance Release Half-life (hydrolysis kinetics of pro-accord monitored by HPLC)
Format: physicochemical
Details: 90/10 dioxane/phosphate buffered water, buffer pH approximately 2.5, HPLC at 30° C.
Method: For the purposes of the present invention the pro-accords generally have a "Fragrance Release Half-life" of less than or equal to 12 hours when measured in NaH2 PO4 buffer at pH 2.5 and greater than or equal to 0.1 hour when measured in NaH2 PO4 buffer at pH 5.3. The "Fragrance Release Half-life" is defined herein as follows.
The rate at which the accord is released is defined by the formula: […]
and can be further expressed by the formula: [formula] wherein k is the release rate constant and [Pro-accord] is the concentration of pro-accord. For the purposes of the present invention the "Fragrance Release Half-life", t1/2, is related to the release rate constant by the formula: [formula] and this relationship is used for the purposes of the present invention to determine the "fragrance Release Half-life" (FRHL).
Due to the hydrophobic nature of some pro-accords, it is necessary to conduct the determination of t1/2 and k in a mixture of 90/10 dioxane/phosphate buffered water. […] Next 10 mL of the phosphate buffer is admixed with 90 mL of dioxane and the pro-fragrance to be analyzed is added. The hydrolysis kinetics are then monitored by conventional HPLC at 30° C. […]
*t1/2 for the purposes of the present invention is measured in […]

| t1/2 (Fragrance Release Half-life) [h] | Compound |
| --- | --- |
| 4.8 | c1ccc(CCOC(OCCc2ccccc2)(OCCc2ccccc2)OCCc2ccccc2)cc1 [tetrakis(phenylethyl) orthocarbonate, Tetrakis(phenylethyl) Orthocarbonate] |
| 5.9 | c1ccc(CCOC(OCCc2ccccc2)OCCc2ccccc2)cc1 [tris(phenylethyl) orthoformate, Tris(phenylethyl) Orthoformate] |
